tested on: purified human Hsp90; test: Binding Assay: fluorescence polarization with BODIPY-labeled geldanamycin; settings: 5 μM compound, BODIPY-GM 10 nM, Hsp90 30 nM
Outline: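 Fluorescence polarization competition with BODIPY-geldanamycin (10 nM final) and human Hsp90 (30 nM final) in HEPES-KOH pH 7.3 buffer with molybdate, NP-40, DTT; 2% DMSO, overnight at room temperature. Read 485/530 nm; percent inhibition from mP normalized to DMSO controls, fluorescent-compound points excluded.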

Row | SMILES | % Inhibition at 5 μM Compound Concentration
1 | Nc1ncn(CCc2c(F)cccc2Cl)c2nc(Sc3cc4c(cc3Br)OCO4)nc1-2 [Example 131, 8-(6-bromo-benzo[1,3]dioxol-5-ylsulfanyl)-3-[2-(2-chloro-6-fluoro-phenyl)-ethyl]-3H-purin-6-ylamine] | 18%
2 | COc1ccc(OC)c(Sc2nc3c(N)ncn(CCc4cc(F)cc(F)c4)c-3n2)c1 [Example 144, 3-[2-(3,5-difluoro-phenyl)-ethyl]-8-(2,5-dimethoxy-phenylsulfanyl)-3H-purin-6-ylamine] | 0%
3 | COc1ccc(OC)c(Sc2nc3c(N)ncn(CCc4cccc(F)c4F)c-3n2)c1 [Example 146, 3-[2-(2,3-difluoro-phenyl)-ethyl]-8-(2,5-dimethoxy-phenylsulfanyl)-3H-purin-6-ylamine] | 0%
4 | Nc1ncn(CCc2cccnc2)c2nc(Sc3cc4c(cc3Br)OCO4)nc1-2 [Example 152, 8-(6-bromo-benzo[1,3]dioxol-5-ylsulfanyl)-3-(2-pyridin-3-yl-ethyl)-3H-purin-6-ylamine] | 20%
5 | Nc1ncn(CCc2cccc(I)c2)c2nc(Sc3cc4c(cc3Br)OCO4)nc1-2 [Example 154, 8-(6-Bromo-benzo[1,3]dioxol-5-ylsulfanyl)-3-[2-(3-iodo-phenyl)-ethyl]-3H-purin-6-ylamine] | >10%
6 | CC(=O)c1ccc(CCn2c(Sc3cc4c(cc3Br)OCO4)nc3c(N)ncnc32)cc1 [Example 159, 1-(4-{2-[6-Amino-8-(6-bromo-benzo[1,3]dioxol-5-ylsulfanyl)-purin-9-yl]-ethyl}-phenyl)-ethanone] | 63%
7 | CC(=O)c1ccc(CCn2cnc(N)c3nc(Sc4cc5c(cc4Br)OCO5)nc2-3)cc1 [Example 160, 1-(4-{2-[6-amino-8-(6-bromo-benzo[1,3]dioxol-5-ylsulfanyl)-purin-3-yl]-ethyl}-phenyl)-ethanone] | 0%
8 | Nc1ncn(CCc2cccc(F)c2F)c2nc(Sc3cc4c(cc3Br)OCO4)nc1-2 [Example 162, 8-(6-bromo-benzo[1,3]dioxol-5-ylsulfanyl)-3-[2-(2,3-difluoro-phenyl)-ethyl]-3H-purin-6-ylamine] | 0%
9 | Cc1ccc(CCn2c(Sc3cc4c(cc3Br)OCO4)nc3c(N)ncnc32)cc1 [Example 163, 8-(6-Bromo-benzo[1,3]dioxol-5-ylsulfanyl)-9-(2-p-tolyl-ethyl)-9H-purin-6-ylamine] | >10%
10 | Cc1ccc(CCn2cnc(N)c3nc(Sc4cc5c(cc4Br)OCO5)nc2-3)cc1 [Example 164, 8-(6-bromo-benzo[1,3]dioxol-5-ylsulfanyl)-3-(2-p-tolyl-ethyl)-3H-purin-6-ylamine] | 0%

Now from value to compound:

Row | % Inhibition at 5 μM Compound Concentration | SMILES
11 | 54% | Nc1ncn(CCc2c(Cl)cccc2Cl)c2nc(Sc3cc4c(cc3Br)OCO4)nc1-2 [Example 129, 8-(6-bromo-benzo[1,3]dioxol-5-ylsulfanyl)-3-[2-(2,6-dichloro-phenyl)-ethyl]-3H-purin-6-ylamine]
12 | 54% | COc1ccc(OC)c(Sc2nc3c(N)ncnc3n2CCc2cc(C)cc(C)c2)c1 [Example 132, 8-(2,5-Dimethoxy-phenylsulfanyl)-9-[2-(3,5-dimethyl-phenyl)-ethyl]-9H-purine-6-ylamine]
13 | 0% | COc1ccc(OC)c(Sc2nc3c(N)ncn(CCc4cc(C)cc(C)c4)c-3n2)c1 [Example 133, 8-(2,5-dimethoxy-phenylsulfanyl)-3-[2-(3,5-dimethyl-phenyl)-ethyl]-3H-purine-6-ylamine]
14 | 16% | COc1ccc(OC)c(Sc2nc3c(N)ncn(CCc4ccccn4)c-3n2)c1 [Example 136, 8-(2,5-Dimethoxy-phenylsulfanyl)-3-(2-pyridin-2-yl-ethyl)-3H-purin-6-ylamine]
15 | 0% | COc1ccc(OC)c(Sc2nc3c(N)ncn(CCc4cccc(I)c4)c-3n2)c1 [Example 138, 8-(2,5-dimethoxy-phenylsulfanyl)-3-[2-(3-iodo-phenyl)-ethyl]-3H-purin-6-ylamine]
16 | 0% | COc1ccc(OC)c(Sc2nc3c(N)ncn(CCc4ccc(F)cc4Cl)c-3n2)c1 [Example 140, 3-[2-(2-chloro-4-fluoro-phenyl)-ethyl]-8-(2,5-dimethoxy-phenylsulfanyl)-3H-purin-6-ylamine]
17 | 0% | COc1ccc(OC)c(Sc2nc3c(N)ncn(CCc4ccccc4Br)c-3n2)c1 [Example 142, 3-[2-(2-bromo-phenyl)-ethyl]-8-(2,5-dimethoxy-phenylsulfanyl)-3H-purin-6-ylamine]
18 | 35% | Nc1ncn(CCc2ccccc2F)c2nc(Sc3cc4c(cc3Br)OCO4)nc1-2 [Example 148, 8-(6-bromo-benzo[1,3]dioxol-5-ylsulfanyl)-3-[2-(2-fluoro-phenyl)-ethyl]-3H-purin-6-ylamine]
19 | 0% | Nc1ncn(CCc2ccccc2Br)c2nc(Sc3cc4c(cc3Br)OCO4)nc1-2 [Example 150, 8-(6-bromo-benzo[1,3]dioxol-5-ylsulfanyl)-3-[2-(2-bromo-phenyl)-ethyl]-3H-purin-6-ylamine]
20 | 16% | Cc1ccccc1CCn1cnc(N)c2nc(Sc3cc4c(cc3Br)OCO4)nc1-2 [Example 156, 8-(6-bromo-benzo[1,3]dioxol-5-ylsulfanyl)-3-(2-o-tolyl-ethyl)-3H-purin-6-ylamine]
21 | 58% | Nc1ncnc2c1nc(Sc1cc3c(cc1Br)OCO3)n2CCc1cccc2ccccc12 [Example 157, 8-(6-Bromo-benzo[1,3]dioxol-5-ylsulfanyl)-9-(2-naphthalen-1-yl-ethyl)-9H-purin-6-ylamine]
22 | 0% | Nc1ncn(CCc2cccc3ccccc23)c2nc(Sc3cc4c(cc3Br)OCO4)nc1-2 [Example 158, 8-(6-bromo-benzo[1,3]dioxol-5-ylsulfanyl)-3-(2-naphthalen-1-yl-ethyl)-3H-purin-6-ylamine]
23 | 17% | Nc1ncnc2c1nc(Sc1cc3c(cc1Br)OCO3)n2CCc1cccc(F)c1F [Example 161, 8-(6-Bromo-benzo[1,3]dioxol-5-ylsulfanyl)-9-[2-(2,3-difluoro-phenyl)-ethyl]-9H-purin-6-ylamine]

same assay, conditions: BODIPY-GM 10 nM, Hsp90 30 nM

Row | SMILES | IC50
24 | COc1ccc(OC)c(Sc2nc3c(N)ncnc3n2CCc2ccccn2)c1 [Example 135, 8-(2,5-Dimethoxy-phenylsulfanyl)-9-(2-pyridin-2-yl-ethyl)-9H-purin-6-ylamine] | 1300 nM
25 | COc1ccc(OC)c(Sc2nc3c(N)ncnc3n2CCc2ccc(F)cc2Cl)c1 [Example 139, 9-[2-(2-chloro-4-fluoro-phenyl)-ethyl]-8-(2,5-dimethoxy-phenylsulfanyl)-9H-purin-6-ylamine] | 90 nM
26 | COc1ccc(OC)c(Sc2nc3c(N)ncnc3n2CCc2ccccc2Br)c1 [Example 141, 9-[2-(2-Bromo-phenyl)-ethyl]-8-(2,5-dimethoxy-phenylsulfanyl)-9H-purin-6-ylamine] | 40 nM
27 | COc1ccc(OC)c(Sc2nc3c(N)ncnc3n2CCc2cc(F)cc(F)c2)c1 [Example 143, 9-[2-(3,5-Difluoro-phenyl)-ethyl]-8-(2,5-dimethoxy-phenylsulfanyl)-9H-purin-6-ylamine] | > 3000 nM
28 | Nc1ncnc2c1nc(Sc1cc3c(cc1Br)OCO3)n2CCc1cccnc1 [Example 151, 8-(6-Bromo-benzo[1,3]dioxol-5-ylsulfanyl)-9-(2-pyridin-3-yl-ethyl)-9H-purin-6-ylamine] | 50 nM
29 | Nc1ncnc2c1nc(Sc1cc3c(cc1Br)OCO3)n2CCc1cccc(I)c1 [Example 153, 8-(6-Bromo-benzo[1,3]dioxol-5-ylsulfanyl)-9-[2-(3-iodo-phenyl)-ethyl]-9H-purin-6-ylamine] | 600 nM
30 | Cc1ccccc1CCn1c(Sc2cc3c(cc2Br)OCO3)nc2c(N)ncnc21 [Example 155, 8-(6-Bromo-benzo[1,3]dioxol-5-ylsulfanyl)-9-(2-o-tolyl-ethyl)-9H-purin-6-ylamine] | 95 nM
31 | CC(=O)c1ccc(CCn2c(Sc3cc4c(cc3Br)OCO4)nc3c(N)ncnc32)cc1 [Example 159, 1-(4-{2-[6-Amino-8-(6-bromo-benzo[1,3]dioxol-5-ylsulfanyl)-purin-9-yl]-ethyl}-phenyl)-ethanone] | 800 nM

Other lines, results leading:

Row | IC50 | SMILES
32 | 66 nM | Nc1ncnc2c1nc(Sc1cc3c(cc1Br)OCO3)n2CCc1c(Cl)cccc1Cl [Example 128, 8-(6-Bromo-benzo[1,3]dioxol-5-ylsulfanyl)-9-[2-(2,6-dichloro-phenyl)-ethyl]-9H-purin-6-ylamine]
33 | 40 nM | Nc1ncnc2c1nc(Sc1cc3c(cc1Br)OCO3)n2CCc1c(F)cccc1Cl [Example 130, 8-(6-Bromo-benzo[1,3]dioxol-5-ylsulfanyl)-9-[2-(2-chloro-6-fluoro-phenyl)-ethyl]-9H-purin-6-ylamine]
34 | 500 nM | COc1ccc(OC)c(Sc2nc3c(N)ncnc3n2CCc2cc(C)cc(C)c2)c1 [Example 132, 8-(2,5-Dimethoxy-phenylsulfanyl)-9-[2-(3,5-dimethyl-phenyl)-ethyl]-9H-purine-6-ylamine]
35 | > 3000 nM | COc1ccc(OC)c(Sc2nc3c(N)ncnc3n2CCc2ccncc2)c1 [Example 134, 8-(2,5-Dimethoxy-phenylsulfanyl)-9-(2-pyridin-4-yl-ethyl)-9H-purin-6-ylamine]
36 | 210 nM | COc1ccc(OC)c(Sc2nc3c(N)ncnc3n2CCc2cccc(I)c2)c1 [Example 137, 8-(2,5-Dimethoxy-phenylsulfanyl)-9-[2-(3-iodo-phenyl)-ethyl]-9H-purin-6-ylamine]
37 | > 3000 nM | COc1ccc(OC)c(Sc2nc3c(N)ncnc3n2CCc2cccc(F)c2F)c1 [Example 145, 9-[2-(2,3-Difluoro-phenyl)-ethyl]-8-(2,5-dimethoxy-phenylsulfanyl)-9H-purin-6-ylamine]
38 | 44 nM | Nc1ncnc2c1nc(Sc1cc3c(cc1Br)OCO3)n2CCc1ccccc1F [Example 147, 8-(6-Bromo-1,3-benzodioxol-5-ylsulfanyl)-9-[2-(2-fluoro-phenyl)-ethyl]-9H-purin-6-ylamine]
39 | 70 nM | Nc1ncnc2c1nc(Sc1cc3c(cc1Br)OCO3)n2CCc1ccccc1Br [Example 149, 8-(6-Bromo-benzo[1,3]dioxol-5-ylsulfanyl)-9-[2-(2-bromo-phenyl)-ethyl]-9H-purin-6-ylamine]
40 | 500 nM | Nc1ncnc2c1nc(Sc1cc3c(cc1Br)OCO3)n2CCc1cccc2ccccc12 [Example 157, 8-(6-Bromo-benzo[1,3]dioxol-5-ylsulfanyl)-9-(2-naphthalen-1-yl-ethyl)-9H-purin-6-ylamine]
41 | 320 nM | Nc1ncnc2c1nc(Sc1cc3c(cc1Br)OCO3)n2CCc1cccc(F)c1F [Example 161, 8-(6-Bromo-benzo[1,3]dioxol-5-ylsulfanyl)-9-[2-(2,3-difluoro-phenyl)-ethyl]-9H-purin-6-ylamine]
